{"source": "paper PMC5833756", "about": "“A novel ruthenium complex with xanthoxylin induces S-phase arrest and causes ERK1/2-mediated apoptosis in HepG2 cells through a p53-independent pathway” (Cell Death & Disease, 2018)", "key": {"[1]": {"tested_on": "HepG2", "format": "cell-based, human"}, "[2]": {"tested_on": "HL-60", "format": "cell-based, human"}, "[3]": {"tested_on": "AGP-01", "details": "AGP-01 (human ascitic gastric adenocarcinoma), 72 h"}, "[4]": {"tested_on": "MRC-5", "format": "cell-based", "details": "MRC5; MRC-5 (human lung fibroblast, non-cancer), 72 h"}, "[5]": {"tested_on": "K-562", "format": "cell-based, human"}, "[6]": {"tested_on": "BAD KO SV40 MEF", "format": "cell-based, mouse", "details": "Mus musculus, 72 h"}, "[7]": {"tested_on": "B16-F10", "format": "cell-based, mouse"}, "[8]": {"tested_on": "ACP-03", "format": "cell-based, human"}, "[9]": {"tested_on": "multicellular spheroids formed from HepG2 cells", "experiment": "3D multicellular spheroid culture, alamar blue", "format": "cell-based, human", "details": "Homo sapiens; HepG2 3D spheroids, 72 h", "procedure": "HepG2 cells were cultivated in 3D multicellular spheroids. Briefly, 100 μL of cell solution (0.5 × 10^6 cells/mL) was added to a 96-well plate with a cell-repellent surface (Greiner Bio-One, Kremsmünster, Austria) and cultured in complete medium plus 3% Matrigel (BD Biosciences, San Jose, CA, USA). Spheroids with stable structures formed after three days. Then, the spheroids were exposed to a range of drug concentrations for 72 h. The negative control received the vehicle that was used for diluting the complex tested. In the end of the experiment, morphological changes were examined by light microscopy (Olympus BX41, Tokyo, Japan) using Image-Pro software (Media Cybernetics, Inc. Silver Spring, USA), and cell viability was quantified by alamar blue assay as described above."}, "[10]": {"tested_on": "SCC-9", "format": "cell-based, human"}, "[11]": {"tested_on": "HepG2 cells", "experiment": "Trypan blue exclusion assay", "format": "cell-based, human", "details": "HepG2, 24 h; DOX 2 µM, OXA 10 µM"}, "[12]": {"tested_on": "HaCAT", "format": "cell-based", "details": "HaCAT (human keratinocyte, non-cancer), 72 h"}, "[13]": {"tested_on": "ACP-02", "format": "cell-based, human"}, "[14]": {"tested_on": "HepG2 cells", "format": "cell-based, human", "details": "DOX 2 µM, OXA 10 µM, RCX 12 µM", "procedure": "Briefly, the cells were harvested in a permeabilization solution containing 0.1% Triton X-100, 2 µg/mL PI, 0.1% sodium citrate and 100 µg/mL RNAse (all from Sigma-Aldrich) and incubated in the dark for 15 min at room temperature. Finally, cell fluorescence was measured by flow cytometry with a BD LSRFortessa cytometer using BD FACSDiva Software (BD Biosciences) and FlowJo Software 10 (FlowJo Lcc; Ashland, OR, USA). Ten thousand events were evaluated per experiment, and cellular debris was omitted from the analysis."}, "[15]": {"tested_on": "SCC-25", "format": "cell-based, human"}, "[16]": {"tested_on": "MCF-7", "format": "cell-based, human"}, "[17]": {"tested_on": "HCT116", "format": "cell-based, human"}, "[18]": {"details": "i.p. 21 days, DOX 0.3 mg/kg, 5-FU 10 mg/kg, RCX 2.5 mg/kg"}, "[19]": {"details": "peripheral blood, i.p. 21 days, DOX 0.3 mg/kg, 5-FU 10 mg/kg, RCX 2.5 mg/kg"}}, "note": "Read-outs that look alike come from different tables or passages of the source. Marks after values point to notes of the source that are not given here.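 For Final body weight in this document: mice bearing subcutaneous HepG2 xenografts, given intraperitoneal doses once daily for 21 days, weighed at start and end, blood leukocytes counted by light microscopy on day 22.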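 For Initial body weight in this document: mice bearing subcutaneous HepG2 xenografts, given intraperitoneal doses once daily for 21 days, weighed at start and end, blood leukocytes counted by light microscopy on day 22.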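 For Survival in this document: mice bearing subcutaneous HepG2 xenografts, given intraperitoneal doses once daily for 21 days, weighed at start and end, blood leukocytes counted by light microscopy on day 22.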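 For lung histopathological characteristics in this document: mice bearing subcutaneous HepG2 xenografts, given intraperitoneal doses once daily for 21 days, weighed at start and end, blood leukocytes counted by light microscopy on day 22.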", "data": [{"smiles": "COc1cccc2c1C(=O)c1c(O)c3c(c(O)c1C2=O)C[C@@](O)(C(=O)CO)C[C@@H]3O[C@H]1C[C@H](N)[C@H](O)[C@H](C)O1", "note": "[DOX, doxorubicin]", "values": [{"measurement": "IC50", "setting": "[1]; HepG2 (human hepatocellular carcinoma), monolayer, 72 h", "result": 1300, "unit": "nM"}, {"measurement": "selectivity index (SI)", "setting": "[1]; IC50 HaCAT / IC50 HepG2", "result": 0.1}, {"measurement": "selectivity index (SI)", "setting": "[1]; IC50 MRC5 / IC50 HepG2", "result": 1}, {"measurement": "selectivity index (SI)", "setting": "[1]; IC50 PBMC / IC50 HepG2", "result": 4}, {"measurement": "IC50", "setting": "[2]; HL-60 (human promyelocytic leukemia), 72 h", "result": 200, "unit": "nM"}, {"measurement": "selectivity index (SI)", "setting": "[2]; IC50 HaCAT / IC50 HL-60", "result": 0.5}, {"measurement": "selectivity index (SI)", "setting": "[2]; IC50 MRC5 / IC50 HL-60", "result": 6.5}, {"measurement": "selectivity index (SI)", "setting": "[2]; IC50 PBMC / IC50 HL-60", "result": 26}, {"measurement": "IC50", "setting": "[3]", "result": 1900, "unit": "nM"}, {"measurement": "IC50", "setting": "[4]", "result": 1300, "unit": "nM"}, {"measurement": "selectivity index (SI)", "setting": "[5]; IC50 HaCAT / IC50 K-562", "result": 0.1}, {"measurement": "selectivity index (SI)", "setting": "[5]; IC50 MRC5 / IC50 K-562", "result": 1.3}, {"measurement": "selectivity index (SI)", "setting": "[5]; IC50 PBMC / IC50 K-562", "result": 5.2}, {"measurement": "IC50", "setting": "[5]; K562, K-562 (human chronic myelogenous leukemia), 72 h", "result": 1000, "unit": "nM"}, {"measurement": "IC50", "setting": "[6]", "result": 410, "unit": "nM"}, {"measurement": "selectivity index (SI)", "setting": "[7]; IC50 HaCAT / IC50 B16-F10", "result": 0.2}, {"measurement": "selectivity index (SI)", "setting": "[7]; IC50 MRC5 / IC50 B16-F10", "result": 2.2}, {"measurement": "selectivity index (SI)", "setting": "[7]; IC50 PBMC / IC50 B16-F10", "result": 8.7}, {"measurement": "IC50", "setting": "[7]; Mus musculus, B16-F10 (murine melanoma), 72 h", "result": 600, "unit": "nM"}, {"measurement": "lung histopathological characteristics", "setting": "atelectasis, hemorrhage, inflammation, congestion, doxorubicin 0.3 mg/kg, RCX both doses, 21 days", "result": "more pronounced in the doxorubicin and RCX (both doses) groups than in the other groups"}, {"measurement": "Initial body weight", "setting": "before treatment, DOX 0.3 mg/kg, 5-FU 10 mg/kg, RCX 2.5 mg/kg groups", "result": "22.3 ± 0.4", "unit": "g"}, {"measurement": "Final body weight", "setting": "[18]", "result": "19.5 ± 0.6", "unit": "g"}, {"measurement": "Survival", "setting": "[18]", "result": "14/14"}, {"measurement": "Differential leukocytes: Eosinophils", "setting": "[19]", "result": 1.0, "unit": "%"}, {"measurement": "Differential leukocytes: Lymphocytes", "setting": "[19]", "result": 49.3, "unit": "%"}, {"measurement": "Differential leukocytes: Monocytes", "setting": "[19]", "result": 1.0, "unit": "%"}, {"measurement": "Differential leukocytes: Neutrophils", "setting": "[19]", "result": 48.8, "unit": "%"}, {"measurement": "Erythrocytes", "setting": "[19]", "result": "8.9 ± 0.7 10^6cells/μL"}, {"measurement": "Total leukocytes", "setting": "[19]", "result": "1.5 ± 0.2* 10^3cells/μL"}, {"measurement": "IC50", "setting": "[8]; ACP-03 (human gastric adenocarcinoma), 72 h", "result": 2400, "unit": "nM"}, {"measurement": "selectivity index (SI)", "setting": "[8]; IC50 HaCAT / IC50 ACP-03", "result": 0.04}, {"measurement": "selectivity index (SI)", "setting": "[8]; IC50 MRC5 / IC50 ACP-03", "result": 0.5}, {"measurement": "selectivity index (SI)", "setting": "[8]; IC50 PBMC / IC50 ACP-03", "result": 2.2}, {"measurement": "IC50", "setting": "[9]", "result": 18100, "unit": "nM"}, {"measurement": "selectivity index (SI)", "setting": "[10]; IC50 HaCAT / IC50 SCC-9", "result": 0.04}, {"measurement": "selectivity index (SI)", "setting": "[10]; IC50 MRC5 / IC50 SCC-9", "result": 0.5}, {"measurement": "selectivity index (SI)", "setting": "[10]; IC50 PBMC / IC50 SCC-9", "result": 2}, {"measurement": "IC50", "setting": "[10]; SCC-9 (human oral squamous cell carcinoma), 72 h", "result": 2600, "unit": "nM"}, {"measurement": "change in the number of viable cells", "setting": "[11]", "result": "reduced the number of viable cells"}, {"measurement": "IC50", "setting": "[12]", "result": 100, "unit": "nM"}, {"measurement": "IC50", "setting": "[13]; ACP-02 (human gastric adenocarcinoma), 72 h", "result": 6800, "unit": "nM"}, {"measurement": "selectivity index (SI)", "setting": "[13]; IC50 HaCAT / IC50 ACP-02", "result": 0.02}, {"measurement": "selectivity index (SI)", "setting": "[13]; IC50 MRC5 / IC50 ACP-02", "result": 0.2}, {"measurement": "selectivity index (SI)", "setting": "[13]; IC50 PBMC / IC50 ACP-02", "result": 0.8}, {"measurement": "DNA content G0/G1", "setting": "[14]; HepG2, 12 h", "result": "51.9 ± 4.8", "unit": "%"}, {"measurement": "DNA content G2/M", "setting": "[14]; HepG2, 12 h", "result": "22.6 ± 2.6", "unit": "%"}, {"measurement": "DNA content S", "setting": "[14]; HepG2, 12 h", "result": "6.9 ± 0.1", "unit": "%"}, {"measurement": "DNA content Sub-G0/G1", "setting": "[14]; HepG2, 12 h", "result": "13.4 ± 1.2", "unit": "%"}, {"measurement": "DNA content G0/G1", "setting": "[14]; HepG2, 24 h", "result": "20.9 ± 3.3", "unit": "%"}, {"measurement": "DNA content G2/M", "setting": "[14]; HepG2, 24 h", "result": "66.9 ± 5.5", "unit": "%"}, {"measurement": "DNA content S", "setting": "[14]; HepG2, 24 h", "result": "8.9 ± 2.3", "unit": "%"}, {"measurement": "DNA content Sub-G0/G1", "setting": "[14]; HepG2, 24 h", "result": "16.8 ± 4.3", "unit": "%"}, {"measurement": "DNA content G0/G1", "setting": "[14]; HepG2, 48 h", "result": "34.6 ± 2.7", "unit": "%"}, {"measurement": "DNA content G2/M", "setting": "[14]; HepG2, 48 h", "result": "31.1 ± 3.3", "unit": "%"}, {"measurement": "DNA content S", "setting": "[14]; HepG2, 48 h", "result": "9.1 ± 1.9", "unit": "%"}, {"measurement": "DNA content Sub-G0/G1", "setting": "[14]; HepG2, 48 h", "result": "20.9 ± 1.0", "unit": "%"}, {"measurement": "DNA content G0/G1", "setting": "[14]; HepG2, 72 h", "result": "31.6 ± 5.1", "unit": "%"}, {"measurement": "DNA content G2/M", "setting": "[14]; HepG2, 72 h", "result": "16.3 ± 1.1", "unit": "%"}, {"measurement": "DNA content S", "setting": "[14]; HepG2, 72 h", "result": "12.5 ± 1.1", "unit": "%"}, {"measurement": "DNA content Sub-G0/G1", "setting": "[14]; HepG2, 72 h", "result": "46.6 ± 2.8", "unit": "%"}, {"measurement": "selectivity index (SI)", "setting": "[15]; IC50 HaCAT / IC50 SCC-25", "result": 0.1}, {"measurement": "selectivity index (SI)", "setting": "[15]; IC50 MRC5 / IC50 SCC-25", "result": 1.3}, {"measurement": "selectivity index (SI)", "setting": "[15]; IC50 PBMC / IC50 SCC-25", "result": 5.2}, {"measurement": "IC50", "setting": "[15]; SCC-25 (human oral squamous cell carcinoma), 72 h", "result": 1000, "unit": "nM"}, {"measurement": "selectivity index (SI)", "setting": "[16]; IC50 HaCAT / IC50 MCF-7", "result": 0.1}, {"measurement": "selectivity index (SI)", "setting": "[16]; IC50 MRC5 / IC50 MCF-7", "result": 1.2}, {"measurement": "selectivity index (SI)", "setting": "[16]; IC50 PBMC / IC50 MCF-7", "result": 4.7}, {"measurement": "IC50", "setting": "[16]; MCF7, MCF-7 (human breast adenocarcinoma), 72 h", "result": 1100, "unit": "nM"}, {"measurement": "IC50", "setting": "[17]; HCT-116, HCT116 (human colon carcinoma), 72 h", "result": 200, "unit": "nM"}, {"measurement": "selectivity index (SI)", "setting": "[17]; IC50 HaCAT / IC50 HCT116", "result": 0.5}, {"measurement": "selectivity index (SI)", "setting": "[17]; IC50 MRC5 / IC50 HCT116", "result": 6.5}, {"measurement": "selectivity index (SI)", "setting": "[17]; IC50 PBMC / IC50 HCT116", "result": 26}]}]}
